Reference: PubChem BioAssay AID463136 (University of Pittsburgh Molecular Library Screening Center, 2010)
Results filed as inconclusive are left out. The source made the active and inactive calls. How the calls were made is not given here.

What was measured:
[1] = blockers of dynein-driven microtubule transport – imaging, high-content imaging, dose response (AID 463136); settings: HCS imaging, dynein-mediated cargo transport inhibition; inhibition at max concentration; at 50 µM; stronger effect = higher value;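 further: mouse mammary adenocarcinoma 3617.4 cells expressing GFP-tagged rat glucocorticoid receptor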; on inhibition: reference of the scale not given here
[2] = system: HCS imaging, dynein-mediated cargo transport inhibition; assay: as above

Row | Structure (SMILES) | inhibition [1] [%] | IC50 [2]
1 | COc1cccc(N2C(=O)NC(=O)/C(=C\c3ccc([N+](=O)[O-])s3)C2=O)c1 | 85.4 | 13.5 µM
2 | COc1ccc(C(=O)/C=C/C(=O)N(CC(=O)NCCC(C)C)Cc2cccs2)c(O)c1 | 45.7 | > 50 µM (inactive)
3 | COc1ccc2c(c1)c1ccc3c(c1n2C)C(=O)C=CC3=O | 93.1 | 14.5 µM
4 | Cc1nc([N+](=O)[O-])c(Br)n1CC(=O)c1ccc(F)cc1 | 92.2 | 3.25 µM
5 | COC(CNC(=O)c1ccc2c3c(onc13)-c1ccccc1C2=O)OC | 99.6 | 29.3 µM
6 | O=C(Nc1ccc(Cl)cc1)/C(=C/c1cccc(O)c1)c1nc2ccccc2s1 | 40.7 | > 50 µM (inactive)
7 | Cc1ccccc1-n1sc2cc(F)ccc2c1=O | 96.2 | 13.6 µM
8 | O=c1c(Cl)c(Cl)cnn1Cc1nnc(-c2ccc(Cl)cc2)o1 | 69.6 | 22.9 µM
9 | Cc1ccc(NC(=O)CN(C)C(=O)Cn2ncc(Cl)c(Cl)c2=O)cc1 | 59 | 7.77 µM
10 | O=C(NCc1cccnc1)/C(=C\c1ccc(-c2ccc(Cl)c(Cl)c2)o1)S(=O)(=O)c1ccccc1 | 9.8 | > 50 µM (inactive)
11 | O=C1C=CC2C(c3ccc4c(c3)OCO4)CC1N2Cc1ccccc1 (centres undefined) | 13 | > 50 µM (inactive)
12 | O=c1c(Cl)c(Cl)cnn1Cc1ccccc1Cl | 51.4 | 23.8 µM
13 | C=CCSc1nnc(C)c(/C=C/Nc2ccc(Cl)cc2)n1 | 125 | 27.7 µM
14 | Cc1nc([N+](=O)[O-])c(Br)n1CC(=O)c1ccccc1 | 82.1 | 1.96 µM
15 | COc1ccc(Oc2cc(NC(=O)c3nn(C)cc3[N+](=O)[O-])cc([N+](=O)[O-])c2)cc1 | 69.9 | 43 µM
16 | Nc1nc(Sc2c([N+](=O)[O-])cc(C(F)(F)F)cc2[N+](=O)[O-])n[nH]1 | 44.1 | 21.9 µM
17 | O=C(CCl)N(CCCNC(=O)C(F)(F)F)c1ccc([N+](=O)[O-])cc1 | 83.1 | 10.8 µM
18 | COC(=O)CS(=O)(=O)c1nnc([C@H](Cc2ccccc2)NC(=O)OC(C)(C)C)o1 | 34.1 | > 50 µM (inactive)
19 | COc1cccc(/C=C/C(=O)c2cccc([N+](=O)[O-])c2)c1OC | 27.1 | > 50 µM (inactive)
20 | CC(=O)O[C@@H]1C[C@H]2C(C)(C)C(=O)C=C[C@]2(C)[C@H]2CC[C@@]3(C)[C@H](c4ccoc4)OC(=O)[C@H]4O[C@]43[C@@]21C | 77.9 | 33.6 µM
21 | CC(=O)n1cc(N(C(=O)CCl)c2ccc([N+](=O)[O-])cc2)c2ccccc21 | 25.2 | > 50 µM (inactive)

Row | Structure (SMILES) | inhibition [1] [%] | IC50 [2]
22 | CCOC(=O)C(C(=O)OCC)C(C(=O)OCC)N1CCOCC1 (centres undefined) | 89.2 | 14 µM
23 | CC(C)(C)c1cnnn1-c1ccc(C(=O)CCl)cc1 | 67.1 | 6.44 µM
24 | CCOC(=O)c1c(NC(=O)/C=C/C(=O)O)sc(C)c1-c1ccc(Cl)cc1 | 93.3 | 9.7 µM
25 | Cc1cc(C)cc(Cn2ncc(Cl)c(Cl)c2=O)c1 | 63.9 | 22.7 µM
26 | Cn1ncc(S(=O)(=O)Cc2ccccc2)c(Cl)c1=O | 10.6 | > 50 µM (inactive)
27 | C=CCSc1nc2ccccc2n1C(=O)/C=C/c1cc(OC)c(OC)c(OC)c1 | 25.5 | > 50 µM (inactive)
28 | Nc1c(C(=O)C2CC2)sc2nc(-c3cccs3)cc(C(F)(F)F)c12 | 66.4 | 38.7 µM
29 | Cc1ccc(/C=C2/C(=O)ON=C2c2ccccc2)o1 | 15.6 | > 50 µM (inactive)
30 | CC(=O)Nc1sc(/C(C#N)=C\c2cccc(Cl)c2)nc1-c1ccc(C)cc1 | 109 | 8.22 µM
31 | CC[n+]1c(/C=C/C=C/N(C(C)=O)c2ccccc2)sc2ccccc21 | 99.6 | 1.08 µM
32 | COCc1cc(S(=O)c2ccc(Cl)cc2)nc(C)n1 (centres undefined) | 86.5 | 15.6 µM
33 | COC(=O)c1cc(=O)n(Cc2ccc(OC)c(OC)c2)c(=Nc2ccc(F)cc2)s1 | 74.3 | 24.6 µM
34 | N#CC(C#N)=C1C=C2C=C(N3CCCCC3)CCC2CC1 (centres undefined) | 99.5 | 35.8 µM
35 | COc1ccc(-n2cccc2/C=C/[N+](=O)[O-])cc1 | 14.4 | > 50 µM (inactive)
36 | Cc1cc(C(=O)Cn2ncc(Cl)c(Cl)c2=O)c(C)n1CC(F)(F)F | 78.6 | 7.79 µM
37 | O=c1c(Cl)c(Cl)cnn1Cc1ccc(F)cc1 | 80.4 | 10.3 µM
38 | COc1ccc(OC)c(N2C(=O)NC(=O)/C(=C/c3ccc([N+](=O)[O-])s3)C2=O)c1 | 86.6 | 12.5 µM
39 | O=C(Nc1ccc(F)cc1)c1nn(-c2ccccc2)c(=O)cc1Cl | 76.4 | 35.7 µM
40 | O=C(CCl)c1ccc2c(c1)CCN2C(=O)C1CCCCC1 | 78.2 | 27 µM
41 | Cc1ccc(N2C(=N)/C(=C3/Nc4ccccc4S3)C(c3ccccc3)C2=O)cc1 (centres undefined) | 81.8 | 23.2 µM
42 | CC(C)Cn1c([N+](=O)[O-])nc2c1c(=O)[nH]c(=O)n2C | 83.8 | 5.26 µM

Row | Structure (SMILES) | inhibition [1] [%] | IC50 [2]
43 | COC(=O)c1cc([N+](=O)[O-])c(-n2cncn2)c([N+](=O)[O-])c1 | 12.4 | > 50 µM (inactive)
44 | N#C/C(=C/c1ccc(N2CCCCCC2)o1)c1ccc(Cl)cc1 | 23.1 | > 50 µM (inactive)
45 | CCN1CCN(C2=CC3=CC(=C(C#N)C#N)CCC3CC2)CC1 (centres undefined) | 99.2 | 30.6 µM
46 | Cc1ccc(Sc2ccc(NC(=O)CCl)cc2)cc1C | 16.3 | > 50 µM (inactive)
47 | O=C(CCl)N(Cc1cccc([N+](=O)[O-])c1)c1cccc(Cl)c1 | 75 | 12.2 µM
48 | C=C1C(=O)O[C@H]2C[C@@H](C)[C@@H]3C=CC(=O)[C@@]3(C)C[C@H]12 | 89.6 | 8.71 µM
49 | O=[N+]([O-])c1ccc(N/N=C/c2c[nH]c3ccccc23)cc1 | 118 | 21.7 µM
50 | O=C1C=C(NC2=CC3OC(c4ccccc4)OCC3OC2=O)CCC1 (centres undefined) | 13 | > 50 µM (inactive)
51 | O=S(=O)(c1ccccc1)c1ncc(C(F)(F)F)cc1Cl | 79.3 | 8.14 µM
52 | COc1ccc(/C=C/C(=O)c2c(O)c(OC)c3occc3c2OC)cc1 | 30.2 | > 50 µM (inactive)
53 | CCN1C/C(=C/c2ccc(N3CCOCC3)cc2)C(=O)/C(=C/c2ccc(N3CCOCC3)cc2)C1 | 108 | 25 µM
54 | CCN1CCN(C2=C(Cl)C(=O)N(Cc3ccccc3)C2=O)CC1 | 87.8 | 20.9 µM
55 | O=C(NC1CCCC1)C(c1ccc(F)cc1)N(Cc1ccc(F)cc1)C(=O)CCl (centres undefined) | 73.1 | 38.5 µM
56 | O=[N+]([O-])c1ccc(Sc2nnnn2-c2ccccc2)nc1 | 81.6 | 7.59 µM
57 | COc1ccc(CN(CCC(c2ccccc2)c2ccc(OC(C)C)cc2)C(=O)CCl)cc1OC (centres undefined) | 34.9 | > 50 µM (inactive)
58 | C#CC(=O)N(c1ccc(OC)c(OC)c1)C(C(=O)NC1CCCC1)c1cccs1 (centres undefined) | 40.2 | > 50 µM (inactive)
59 | Cc1ccc2nc(Cl)c3nnnn3c2c1 | 64 | 9.43 µM
60 | Cc1ccc(C(=O)NC(C#N)=C(Cl)Cl)cc1 | 82.3 | 6.71 µM
61 | Cc1ccc2nc(/C(C#N)=C\c3ccc(N4CCOCC4)o3)[nH]c2c1 | 80.2 | 13.1 µM
62 | CCCNC(=O)c1nnsc1S(=O)c1ccc(Cl)cc1 (centres undefined) | 77 | 7.07 µM
63 | Cn1c(=O)c(NCCc2ccccc2)c2c3c(cccc31)C(=O)c1ccccc1-2 | 19 | > 50 µM (inactive)

Row | Structure (SMILES) | inhibition [1] [%] | IC50 [2]
64 | CCOC(=O)c1c(NC(=S)N2CCOCC2)sc2c1CCN(C(=O)OCC)C2 | 74 | 33.2 µM
65 | Cc1cc(C)cc(N2C(=O)NC(=O)/C(=C\C=C\c3ccco3)C2=O)c1 | 88 | 32.3 µM
66 | Cc1nc2c(=O)n(C)c(=O)n(C)c2nc1Cl | 62.9 | 9.82 µM
67 | C=C1C(=O)[C@@]23[C@H](O)C[C@@H]4C(C)(C)CC[C@H](O)[C@@]4(C)[C@@H]2CC[C@@H]1[C@H]3O | 87.3 | 6.12 µM
68 | Cc1cc2oc(=O)cc(Cn3ncc(Cl)c(Cl)c3=O)c2cc1Cl | 65.7 | 20.1 µM
69 | COC(=O)c1cc(=O)n(CCc2ccccc2F)c(=Nc2ccc(F)c(Cl)c2)s1 | 11.9 | > 50 µM (inactive)
70 | CN1C(=O)NC(=O)/C(=C/c2ccc([N+](=O)[O-])s2)C1=O | 84.7 | 12 µM
71 | O=[N+]([O-])c1ccc(NCc2ccccc2)c2nonc12 | 99.5 | 26.9 µM
72 | Cc1ccc(-n2nnnc2Sc2ccc(S(=O)(=O)NCCN(C)C)cc2[N+](=O)[O-])cc1 | 86.3 | 11.9 µM
73 | O=C(Cc1ccccc1)Nc1cccc(N2C(=O)C=CC2=O)c1 | 4.22 | > 50 µM (inactive)
74 | O=C(CCl)Nc1ccc(-c2ccccc2)cc1 | 66 | 14.3 µM
75 | O=c1cc(-c2c(F)c(F)c(F)c(F)c2F)oc2c(F)c(F)c(F)c(F)c12 | 92 | 27.7 µM
76 | CC(C)(C)C1C/C(=C/c2ccco2)C(=O)/C(=C/c2ccco2)C1 (centres undefined) | 101 | 24.9 µM
77 | COCCN(C(=O)CCl)C(C(=O)NC1CCCCC1)c1ccccc1C (centres undefined) | 79.5 | 24.8 µM
78 | Cc1ccc(C(C)C)c(OCC(=O)NN=C(CCl)CCl)c1 | 36.3 | > 50 µM (inactive)
79 | CCN1CC=C2C(C#N)=C(N)C(C#N)(C#N)C(CCc3ccccc3)C2C1 (centres undefined) | 98.8 | 19.5 µM
80 | COC(CN(C(=O)CCl)C(C(=O)NC1CCCCC1)c1ccc(Cl)cc1)OC (centres undefined) | 82.6 | 22.6 µM
81 | Cc1nc([N+](=O)[O-])c(Br)n1CC(=O)c1ccc(Cl)cc1 | 88.1 | 13.1 µM
82 | Cc1cc(C)c2c(=O)n(CC(=O)NCCCN3CCN(c4ccccc4F)CC3)sc2n1 | 96.3 | 14 µM
